Earlier results as cited in patent publication US20190275119A1, “PROOXIDANT CANCER CHEMO-SUPPRESSORS AND CHEMO-PROTECTORS AND METHODS OF USE RELATED THERETO” (priority 2016, published 2019).

Test system: tumor cells
Conditions: low concentrations (about 10 μM)

O=CC=Cc1ccccc1OC(=O)c1ccccc1 [BCA, 2′-benzoyl-oxycinnamaldehyde]
growth inhibition and apoptosis of tumor cells: inhibit growth and induce apoptosis of tumor cells

O=CC=Cc1ccccc1O [HCA, 2′-hydroxycinnamaldehyde]
growth inhibition and apoptosis of tumor cells: inhibit growth and induce apoptosis of tumor cells
